# Columns and labels:
# Type in all cases: functional
# Staphylococcus aureus [1] = assay: Antibacterial activity against methicillin-resistant Staphylococcus aureus after overnight incubation by micro broth dilution analysis
# [2] = test system: Staphylococcus epidermidis; assay: Antibacterial activity against methicillin-resistant Staphylococcus epidermidis after overnight incubation by micro broth dilution analysis
# [3] = test system: Staphylococcus haemolyticus; assay: Antibacterial activity against methicillin-resistant Staphylococcus haemolyticus after overnight incubation by micro broth dilution analysis
# Staphylococcus aureus [4] = assay: Antibacterial activity against methicillin-resistant Staphylococcus aureus assessed as zone of inhibition at 50 ug/mL after 24 hrs by agar disc diffusion method; conditions: read-out: IZ
# [5] = test system: Staphylococcus epidermidis; assay: Antibacterial activity against methicillin-resistant Staphylococcus epidermidis assessed as zone of inhibition at 20 ug/mL after 24 hrs by agar disc diffusion method; conditions: read-out: IZ
# [6] = test system: Staphylococcus haemolyticus; assay: Antibacterial activity against methicillin-resistant Staphylococcus haemolyticus assessed as zone of inhibition at 50 ug/mL after 24 hrs by agar disc diffusion method; conditions: read-out: IZ
Structure (SMILES),MIC99 (Staphylococcus aureus [1]) [µg/mL],MIC99 [2] [µg/mL],MIC99 [3] [µg/mL],zone of inhibition at 50 µg/mL (Staphylococcus aureus [4]) [mm],zone of inhibition at 20 µg/mL [5] [mm],zone of inhibition at 50 µg/mL [6] [mm]
O=S(=O)(F)/C=C/c1cccc2c1oc1ccccc12,17,67.5,47,6.3,3.5,3.3
Cc1ccc(S(=O)(=O)n2ccc3cc(/C=C/S(=O)(=O)F)ccc32)cc1,60.6,66,61,4.2,4.3,3.5
O=S(=O)(F)/C=C/c1ccc(Oc2ccccc2)cc1,51.2,44.2,61.1,4.4,6.4,4.1
O=S(=O)(F)/C=C/c1cccs1,52,50.1,50.6,5.2,4.5,4.1
COc1ccc(/C=C/S(=O)(=O)F)cc1,48.1,51.3,68.2,52,60.4,6.3
O=Cc1ccc(/C=C/S(=O)(=O)F)o1,0.845,61,55.1,7.2,7.4,4.5
O=S(=O)(F)/C=C/c1cnn(-c2ccccc2)c1,51.2,52.3,51.1,3.1,4.3,3.5
O=S(=O)(F)/C=C/c1cccc(/C=C/S(=O)(=O)F)c1,44.1,41.2,50,4.2,6.5,4.4
O=S(=O)(F)/C=C/c1ccc(I)cc1,48.2,50.6,47.6,5.2,5.2,4.4
O=S(=O)(F)/C=C/c1coc2ccccc12,45,52.1,51,6.2,6.4,3.5
O=S(=O)(F)/C=C/C=C/c1ccccc1C(F)(F)F,55.1,52.6,55.1,4.1,4.1,4.3
O=S(=O)(F)/C=C/c1ccc2ccccc2c1,47,43.1,65.5,7.2,4.4,3.5
O=Cc1ccccc1/C=C/S(=O)(=O)F,47.2,52.1,44.1,6.1,4.3,4.2
COc1ccc(Cl)cc1/C=C/S(=O)(=O)F,51.1,40.4,47,5.1,5.2,5.2
O=S(=O)(F)/C=C/C=C/c1ccc(/C=C/S(=O)(=O)F)cc1,66.8,56,55,5.3,4.2,3.5
CCc1ccc(/C=C/S(=O)(=O)F)cc1,45.1,56.2,60,5.1,6.1,3.5

Structure (SMILES),MIC99 (Staphylococcus aureus [1]) [µg/mL],MIC99 [2] [µg/mL],MIC99 [3] [µg/mL],zone of inhibition at 50 µg/mL (Staphylococcus aureus [4]) [mm],zone of inhibition at 20 µg/mL [5] [mm],zone of inhibition at 50 µg/mL [6] [mm]
O=S(=O)(F)/C=C/C=C/c1ccccc1,56.2,52,58.1,6.2,6.2,5.2
CCOC(=O)c1cccc(/C=C/S(=O)(=O)F)c1,40.6,53,50.2,4.2,4.2,4.3
O=Cc1ccc(/C=C/S(=O)(=O)F)cc1,45.6,48.2,60.1,6,4.3,5.2
O=S(=O)(F)/C=C/C=C/c1ccc(Br)cc1,51.1,57,70,4.5,5.4,4.5
O=C(O)c1ccc(/C=C/S(=O)(=O)F)cc1,55.3,50.1,43.3,7.2,6.5,3.3
N#Cc1cccc(/C=C/C=C/S(=O)(=O)F)c1,41.2,50,51.2,3.5,4.5,5.1
Cc1ccc(S(=O)(=O)n2c3ccccc3c3cc(/C=C/S(=O)(=O)F)ccc32)cc1,48,50.1,58,4.3,3.5,3.3
O=S(=O)(F)/C=C/c1cccc(-c2ccccc2)c1,40.1,44.1,40.2,7.8,5.5,5.2
Cc1ccc(S(=O)(=O)n2cc(/C=C/S(=O)(=O)F)c3ccccc32)cc1,47.1,51.2,58,5.1,4.1,4.2
O=S(=O)(F)/C=C/c1ccc(-c2ccccc2)cc1,53.2,65.1,56.1,4.3,5.1,3.5
CCOC(=O)c1ccc(/C=C/S(=O)(=O)F)cc1,41.1,56.1,67.3,6.1,5.5,4.2
CC(C)(C)c1ccc(/C=C/C=C/S(=O)(=O)F)cc1,58.2,62.1,65.3,6.3,5.5,4.5
O=S(=O)(F)/C=C/C=C/c1ccc(C(F)(F)F)cc1,59.1,55.2,67,5.1,6.5,4.5
O=S(=O)(F)/C=C/C=C/c1ccc2ccccc2c1,58,63,51,3.3,5.4,4.5
Cc1ccc(/C=C/C=C/S(=O)(=O)F)cc1,60.6,57,51,4.1,4.1,4.3

# — ChEMBL document CHEMBL4382233, “Discovery of novel arylethenesulfonyl fluorides as potential candidates against methicillin-resistant of Staphylococcus aureus (MRSA) for overcoming multidrug resistance of bacterial infections” (2019)
